Key:
caspase 9 = test: Western blot of mouse skin tissues, induced caspase 9; type: in vivo; conditions: transgenic mouse skin
Method: (§1) To closely monitor the phenotypic changes of the skin of bigenic mice after the activation of caspases through the double-inducible system, we tested system in neonates by delivering RU486 in utero. The RU486 was dissolved in sesame oil and delivered intraperitoneally for 5 days at a dosage of 100 μg/kg per day into pregnant female K14-Glp65/iCasp3 and K14-Glp65/iCasp9 bigenic mice at 14.5 days gestation. To counter the abortion side-effect of RU486, progesterone (Sigma, St. Louis, Mo.) at 0.5 mg/mouse per day was applied along with RU486. Transgenic pups were treated topically with CID on their dorsal anterior-posterior (AP) axes twice per day and monitored closely for phenotypic changes or visible signs of apoptosis. Control littermates were treated with only the diluent only without CID. […] On day four, skin biopsies were taken from the back skin of the pups and fixed in 4% paraformaldehyde.

caspase-3 = test: Clonetech ApoAlert Caspase Assay, caspase-3 activity in transfected CVI cells; type: cell-based, monkey; conditions: CVI cells treated for 1.5 hrs
Method: (§2) A double-inducible gene activation system was evaluated in vitro using a cell culture model. Three plasmids were constructed: 1) chimeric transcription factor, Glp65 containing progesterone receptor ligand-binding domain (PR-LBDΔ) (FIG. 1); 2) pTATA-HA-iCasp3 (myristoylated) carrying CBD; and 3) pTATA-HA-iCasp9 carrying CBD (FIGS. 1 and 2). The chimeric transcription factor and one of the two caspase plasmids were transfected into CVI cells (monkey kidney fibroblasts).

iCasp9 = test: Western blot (anti-HA) of transfected cell lysates, iCasp9; type: cell-based, monkey; conditions: for expression of iCasp9 precursors: CVI cells transfected with Glp65 and pTATA-HA-iCasp9, drug alone, anti-HA Western blot
Method: as §2
(§3) One plasmid expressed a tissue-specific chimeric transcription factor (Glp65) that can be activated by RU486, which functioned as the first induction in our system. In this case, an epidermal-specific keratin 14 (K14) promoter was used to direct gene expression to the keratinocytes of the basal epidermis and hair follicles (KI4-Glp65, FIG. 1; Cao et al., 2002; Kucra et al., 1996). The second plasmid expressed the target transgene. The plasmid contained four copies of the 17-mer GAL4 binding site in the promoter region (FIG. 1). Full length of caspase-3 cDNA with CID binding domain and HA-tag fragment was cloned by polymerase chain reation (PCR) from an expression vector pSH1/M-Fv2-Yama-E (Fan et al., 1999) and was then subcloned into p17×4 TATA-H2 kd vector (Bo et al., 2005) by ClaI and BamH I to generate pTATA-HA-iCasp3 […].
(§4) Cell lysates were assessed by Western blot using an anti-HA antibody. […] With the subsequent application of CID, caspase 3 and caspase 9 were activated as evidenced by the disappearance of the caspase precursors due to the hemagglutinin (HA) tag carrying a caspase cleavage consensus site, DVPD (lanes 4 in FIGS. 3 and 4).

[1] = tested on: adult mouse ear skins and newborn mouse back skins; test: Microscopic and histological analysis of skin (H&E); type: in vivo
Method: The skin apoptosis was evaluated by TUNEL assay (panels j-l).
Skin sections from K14-Glp65/iCasp9 newborn mice back skin were visualized by H&E stain (panels a-c), and were immunostained by keratin 14 antibody (panels d-f). […] The skin apoptosis was evaluated by TUNEL assay (panels j-l).
Apoptosis was evaluated by TUNEL staining.

caspase precursors = test: Immunohistochemical staining of skin with anti-HA antibody; type: in vivo; conditions: adult mouse ear skins and newborn mouse back skins
Method: (§5) Induction of the two caspases was then further studied by immunohistochemical staining with an anti-HA antibody. […] Apoptosis was evaluated by TUNEL staining.

caspase 3 = test: Western blot of mouse skin tissues, induced caspase 3; type: in vivo; conditions: transgenic mouse skin
Method: as §1

[2] = tested on: K14-Glp65/iCasp3 and K14-Glp65/iCasp9 bigenic mice; test: Skin phenotype of adult bigenic mice after RU486 pellet and intraperitoneal CID; type: in vivo, mouse
Method: A double-inducible gene activation system was tested in vivo in two bigenic mouse lines, K14-Glp65/iCasp3 and K14-Glp65/iCasp9. The bigenic mice were generated by breeding two individual mouse lines.
The breeding of the first and second transgenic mouse lines generated bigenic mice called K14-Glp65/iCasp3 and K14-Glp65/iCasp9, which harbored both RU486 and CID regulators as depicted in FIG. 1. With the application of RU486, the Glp65 fusion protein was exclusively expressed in skin keratinocytes, which subsequently initiated caspase precursor induction.
Bigenic mice between 8 and 15 weeks of age were subjected to RU486 treatment using a 21-day-release pellet that was surgically inserted beneath the skin in the region of the posterior scapula. The addition of RU486 activates the chimeric transcription factor and allows it to bind to the GAL4 DNA binding site of the caspase precursor target gene (either icasp3 or icasp9) and induces target gene expression. After seven days of RU486 treatment, CID was applied intraperitoneally to induce self-activation of caspase precursors. Placebo pellets lacking RU486 and CID-diluent were used for control groups.

iCasp3 precursors = test: Western blot (anti-HA) of transfected cell lysates, iCasp3; type: cell-based, monkey; conditions: for expression of iCasp3 precursors: CVI cells transfected with Glp65 and pTATA-HA-iCasp3, drug alone, anti-HA Western blot
Method: as §2, §3, §4

caspase-9 = test: Clonetech ApoAlert Caspase Assay, caspase-9 activity in transfected CVI cells; type: cell-based, monkey; conditions: CVI cells treated for 1.5 hrs
Method: as §2

[3] = tested on: adult mouse ear skins and newborn mouse back skins; test: TUNEL staining of skin (apoptosis); type: in vivo
Method: as §5

[4] = tested on: K14-Glp65/iCasp3 and K14-Glp65/iCasp9 bigenic mice; test: Skin phenotype of neonates after RU486 in utero and topical CID; type: in vivo, mouse; conditions: RU486 in utero; topical CID twice per day, after two days; compared to control littermates
Method: as §1

[5] = subsequent application of CID after RU486, CVI cells

Compound | expression level of induced caspase 9 (caspase 9) | increase in caspase-3 activity (caspase-3) | expression of iCasp9 precursors (iCasp9) | skin structure [1] | expression of caspase precursors (anti-HA staining) (caspase precursors) | expression level of induced caspase 3 (caspase 3) | skin phenotype of ears ([2]; adult bigenic mice that only received RU486 treatment) | expression of iCasp3 precursors (iCasp3 precursors) | increase in caspase-9 activity (caspase-9) | TUNEL-positive nuclei (apoptosis) [3] | caspase 9 activation (disappearance of the caspase precursors) (iCasp9; [5]) | skin phenotype of pups [4] | skin phenotype of ears ([2]; adult bigenic mice, five days following intraperitoneal CID after seven days of RU486 pellet) | caspase 3 activation (disappearance of the caspase precursors) (iCasp3 precursors; [5])
CC#C[C@]1(O)CC[C@H]2[C@@H]3CCC4=CC(=O)CCC4=C3[C@@H](c3ccc(N(C)C)cc3)C[C@@]21C [RU486, mifepristone] | strong expression | not | induced the expression | normal skin structures | Strong expression | strong expression | did not observe this phenotype | induced the expression | not | no or basal level of apoptosis | – | – | – | –
CC[C@H](C(=O)N1CCCC[C@H]1C(=O)O[C@H](CCc1ccc(OC)c(OC)c1)c1cccc(OCC(=O)NCC(CNC(=O)COc2cccc([C@@H](CCc3ccc(OC)c(OC)c3)OC(=O)[C@@H]3CCCCN3C(=O)[C@@H](CC)c3cc(OC)c(OC)c(OC)c3)c2)CN(C)C)c1)c1cc(OC)c(OC)c(OC)c1 [CID] | – | not | No caspase precursors were induced | normal skin structures | – | – | – | No caspase precursors were induced | not | no or basal level of apoptosis | activated | exhibited peeling and appeared dehydrated | reddening of the surface layers of the skin and thickness | activated

Source: patent US20090293139A1, “DOUBLE-INDUCIBLE GENE ACTIVATION SYSTEM AND ITS APPLICATIONS” (The Texas A&M University System Agency State of Texas, priority 2008, published 2009)
